The assay concerns P388 leukemia ip, CD2F1 mice, survival T/C. Put plainly: NCI In Vivo Anticancer Drug Screen. Data for tumor model P388 Leukemia (intraperitoneal) in CD2F1 (CDF1) mice. Conditions: endpoint: median survival time, higher = longer survival. The procedure, abridged:
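Mice carrying the transplanted tumor received test compound or vehicle. Survival was recorded in each group, and the value is the treated-group measurement divided by that of the vehicle-treated control group.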

[1] abbreviates: dose: 25.0 mg/kg/injection, schedule: Q01DX009 (ip), vehicle: saline with Tween-80.
Where [2] appears, read: dose: 50.0 mg/kg/injection, schedule: Q01DX009 (ip), vehicle: saline with Tween-80.
[3] abbreviates: dose: 12.5 mg/kg/injection, schedule: Q01DX009 (ip), vehicle: saline with Tween-80.

Molecules are shown by their SMILES. Several values for one entry are separate records, joined by “and”; a condition that tells them apart may be missing. Equal entries are not always repeated. Toxic doses and inconclusive results are not listed.

`COc1cc(N=Nc2cc(CN(C)C)c(O)c3ncccc23)c(OC)cc1N=Nc1c(Cl)cc([N+](=O)[O-])cc1Cl`: the T/C runs as follows: (dose: 50.0 mg/kg/injection, schedule: Q01DX005 (ip), vehicle: saline with Tween-80) 104 % of control; (dose: 100.0 mg/kg/injection, schedule: Q01DX005 (ip), vehicle: saline with Tween-80) 100 % of control; (dose: 200.0 mg/kg/injection, schedule: Q01DX005 (ip), vehicle: saline with Tween-80) 109 % of control.
As for `c1ccc(-c2nc(-c3ccccc3)c3ccccc3n2)cc1`, the T/C by setting is: under setting [1], 104 % of control; under setting [2], 114 % of control; (dose: 100.0 mg/kg/injection, schedule: Q01DX009 (ip), vehicle: saline with Tween-80) 114 % of control.
Regarding `COC(=O)CC1OCC=C2CN3CCC45C6=CC(=O)C(=O)C([N+](=O)[O-])=C6NC4C1C2CC35` (stereo unspecified), the T/C (dose: 7.5 mg/kg/injection, schedule: Q01DX005 (ip), vehicle: suspension in saline) is 101 % of control and the T/C (dose: 15.0 mg/kg/injection, schedule: Q01DX005 (ip), vehicle: suspension in saline) was 100 % of control.
In the case of `CC1(C)OC(=O)C=C[C@]2(C)[C@H]3CC[C@]4(C)C(=CCC4c4ccoc4)[C@]3(C)[C@H](O)C[C@@H]12` (stereo partly specified), the T/C reads like this: (dose: 11.25 mg/kg/injection, schedule: Q01DX005 (ip), vehicle: Klucel (hydroxypropylcellulose) (HPC)) 101 % of control; (dose: 22.5 mg/kg/injection, schedule: Q01DX005 (ip), vehicle: Klucel (hydroxypropylcellulose) (HPC)) 98 % of control; (dose: 45.0 mg/kg/injection, schedule: Q01DX005 (ip), vehicle: Klucel (hydroxypropylcellulose) (HPC)) 94 % of control; (dose: 90.0 mg/kg/injection, schedule: Q01DX005 (ip), vehicle: Klucel (hydroxypropylcellulose) (HPC)) 98 % of control; (dose: 180.0 mg/kg/injection, schedule: Q01DX005 (ip), vehicle: Klucel (hydroxypropylcellulose) (HPC)) 91 % of control.
Regarding `CN=C(N)NCCCCCCCCNC(N)=NC`, the T/C (dose: 3.13 mg/kg/injection, schedule: Q01DX009 (ip), vehicle: saline with Tween-80) was 112 % of control; the T/C (dose: 3.13 mg/kg/injection, schedule: Q01DX009 (ip), vehicle: saline) is 124 % of control; the T/C (dose: 6.25 mg/kg/injection, schedule: Q01DX009 (ip), vehicle: saline with Tween-80) was 109 % of control; the T/C (dose: 6.25 mg/kg/injection, schedule: Q01DX009 (ip), vehicle: saline) is 109 % of control; the T/C under setting [3] was 112 % of control; the T/C (dose: 25.0 mg/kg/injection, schedule: Q01DX009 (ip), vehicle: saline) is 87 % of control.
With `C[n+]1c(-c2cc(C(F)(F)F)cc(C(F)(F)F)c2)c2cc(N)ccc2c2ccc(N)cc21`, the T/C by setting is: (dose: 2.5 mg/kg/injection, schedule: Q01DX009 (ip), vehicle: water) 110 % of control; (dose: 5.0 mg/kg/injection, schedule: Q01DX009 (ip), vehicle: water) 115 % of control; (dose: 10.0 mg/kg/injection, schedule: Q01DX009 (ip), vehicle: water) 118 % of control; under setting [3], 158 % of control; (dose: 20.0 mg/kg/injection, schedule: Q01DX009 (ip), vehicle: water) 152 % of control; under setting [1], 166 % of control. Further, the T/C is 196 % of control under setting [2] and 111 % of control (dose: 80.0 mg/kg/injection, schedule: Q01DX009 (ip), vehicle: water).
Turning to `O=C1Cc2ccccc2C(=O)N1NCCO`, the T/C runs as follows: (dose: 100.0 mg/kg/injection, schedule: Q01DX001 (ip), vehicle: saline with Tween-80) 103 % of control; (dose: 200.0 mg/kg/injection, schedule: Q01DX001 (ip), vehicle: saline with Tween-80) 102 % of control; (dose: 400.0 mg/kg/injection, schedule: Q01DX001 (ip), vehicle: saline with Tween-80) 94 % of control.
For the molecule `O=S1(=O)CS(=O)(=O)OCCO1`, the T/C was 124 % of control (dose: 3.12 mg/kg/injection, schedule: Q01DX005 (ip), vehicle: Klucel (hydroxypropylcellulose) (HPC)); 155 % of control (dose: 6.25 mg/kg/injection, schedule: Q01DX005 (ip), vehicle: Klucel (hydroxypropylcellulose) (HPC)); 162 % of control and 165 % of control (dose: 9.0 mg/kg/injection, schedule: Q01DX005 (ip), vehicle: Klucel (hydroxypropylcellulose) (HPC)); 216 % of control (dose: 12.5 mg/kg/injection, schedule: Q01DX005 (ip), vehicle: Klucel (hydroxypropylcellulose) (HPC)); 191 % of control (2×) and 200 % of control (dose: 14.0 mg/kg/injection, schedule: Q01DX005 (ip), vehicle: Klucel (hydroxypropylcellulose) (HPC)); 267 % of control and 270 % of control (dose: 25.0 mg/kg/injection, schedule: Q01DX005 (ip), vehicle: Klucel (hydroxypropylcellulose) (HPC)). Where the note is “dose: 75.0 mg/kg/injection, schedule: Q01DX005 (ip), vehicle: Klucel (hydroxypropylcellulose) (HPC)”, the T/C is 207 % of control and 588 % of control.
For the molecule `FC(F)(Cl)c1nc2nc(Cl)c(Cl)nc2[nH]1`, the T/C is 100 % of control (dose: 50.0 mg/kg/injection, schedule: Q01DX009 (ip), vehicle: other); 95 % of control (dose: 50.0 mg/kg/injection, schedule: Q04DX003 (ip), vehicle: other); 114 % of control (dose: 100.0 mg/kg/injection, schedule: Q01DX009 (ip), vehicle: other); 110 % of control (dose: 100.0 mg/kg/injection, schedule: Q04DX003 (ip), vehicle: other); 105 % of control (dose: 200.0 mg/kg/injection, schedule: Q04DX003 (ip), vehicle: other).
For `COc1ccccc1Nc1n[nH]c(=S)s1`, the T/C was 121 % of control (dose: 50.0 mg/kg/injection, schedule: Q01DX009 (ip), vehicle: Klucel (hydroxypropylcellulose) (HPC)); 105 % of control (dose: 100.0 mg/kg/injection, schedule: Q01DX009 (ip), vehicle: Klucel (hydroxypropylcellulose) (HPC)); 95 % of control (dose: 200.0 mg/kg/injection, schedule: Q01DX009 (ip), vehicle: Klucel (hydroxypropylcellulose) (HPC)).
Consider `CCOC(=O)C1OC(C2(C)OC3(OC4(C=CC3O)OC(C(C)C(=O)C(C)C(O)C(C)CC(C)c3c(Cl)cc(C)c(O)c3C(=O)O)C(C)CC4C)C(C)C2OC)CC1O` (stereo unspecified), for which the T/C is 107 % of control (dose: 1.25 mg/kg/injection, schedule: Q01DX005 (ip), vehicle: Klucel (hydroxypropylcellulose) (HPC)) and 100 % of control (dose: 2.5 mg/kg/injection, schedule: Q01DX005 (ip), vehicle: Klucel (hydroxypropylcellulose) (HPC)).
With `CCOCc1c(-c2ccccc2)sc2ccccc2c1=O`, the T/C by setting is: (dose: 60.0 mg/kg/injection, schedule: Q01DX005 (ip), vehicle: Klucel (hydroxypropylcellulose) (HPC)) 98 % of control; (dose: 120.0 mg/kg/injection, schedule: Q01DX005 (ip), vehicle: Klucel (hydroxypropylcellulose) (HPC)) 95 % of control; (dose: 240.0 mg/kg/injection, schedule: Q01DX005 (ip), vehicle: Klucel (hydroxypropylcellulose) (HPC)) 92 % of control.
For the molecule `Cc1c2oc3c(C)ccc(C(=O)NC4C(=O)NC(C(C)C)C(=O)N5CCCC5C(=O)N(C)CC(=O)N(C)C(C(C)C)C(=O)OC4C)c3nc-2c(C(=O)NC2C(=O)NC(C(C)C)C(=O)N3CCCC3C(=O)N(C)CC(=O)N(C)C(C(C)C)C(=O)OC2C)c(Cl)c1=O` (stereo unspecified), the T/C reads like this: (dose: 0.05 mg/kg/injection, schedule: Q01DX009 (ip), vehicle: water) 98 % of control; (dose: 0.1 mg/kg/injection, schedule: Q01DX009 (ip), vehicle: water) 96 % of control; (dose: 0.2 mg/kg/injection, schedule: Q01DX009 (ip), vehicle: water) 114 % of control; (dose: 0.4 mg/kg/injection, schedule: Q01DX009 (ip), vehicle: water) 106 % of control; (dose: 0.8 mg/kg/injection, schedule: Q01DX009 (ip), vehicle: water) 110 % of control; (dose: 3.13 mg/kg/injection, schedule: Q01DX009 (ip), vehicle: water) 150 % of control. Further, the T/C (dose: 6.25 mg/kg/injection, schedule: Q01DX009 (ip), vehicle: water) is 172 % of control; the T/C (dose: 6.4 mg/kg/injection, schedule: Q01DX009 (ip), vehicle: water) was 171 % of control; the T/C (dose: 12.5 mg/kg/injection, schedule: Q01DX009 (ip), vehicle: water) is 172 % of control and 243 % of control; the T/C (dose: 25.0 mg/kg/injection, schedule: Q01DX009 (ip), vehicle: water) was 101 % of control and 256 % of control.
In the case of `FC(F)(F)c1ccc2nc3c4ccccc4c4ccccc4c3nc2c1`, the T/C by setting is: (dose: 50.0 mg/kg/injection, schedule: Q01DX009 (ip), vehicle: saline) 116 % of control; (dose: 100.0 mg/kg/injection, schedule: Q01DX009 (ip), vehicle: saline) 107 % of control; (dose: 200.0 mg/kg/injection, schedule: Q01DX009 (ip), vehicle: saline) 101 % of control.
As to `NCCO/C=C/C(N)C(=O)O` (stereo unspecified), the T/C is 99 % of control (dose: 31.2 mg/kg/injection, schedule: Q01DX009 (ip), vehicle: saline); 99 % of control (dose: 62.5 mg/kg/injection, schedule: Q01DX009 (ip), vehicle: saline); 99 % of control (dose: 125.0 mg/kg/injection, schedule: Q01DX009 (ip), vehicle: saline).

Values taken from PubChem BioAssay AID330 (DTP/NCI, 2004).
